Measurements published in patent US20100322861A1, “ENGINEERED CELLS, IMAGING REPORT GENE/PROBE SYSTEMS, AND METHODS OF IMAGING” (priority 2007, published 2010).

Assays:
HSV1-tk expressing CTLs = assay: In vitro assays of Ganciclovir induced cell death of HSV1-tk expressing CTLs; assay type: cell-based, human; conditions: previous in vitro assays
[1] = system: cytolytic T cells expressing IL13 zetakine and HSV1-tk genes; assay: [18F]FHBG PET imaging of infused HSV1-tk expressing CTLs in a glioma patient; assay type: in vivo, human
From the text: The CTLs were imaged with the PET reporter probe 9-[4-[^18F]Fluoro-3-(hydroxymethyl)butyl]guanine ([^18F]FHBG), because they constitutively express the PET reporter gene (PRG) HSV1-tk. (4) [^18F]FHBG is approved by the FDA as an investigational new drug (IND #61,880) for PET imaging at UCLA and Stanford University nuclear medicine clinics. UCLA's medical internal review board (M-IRB) has approved [^18F]FHBG PET imaging in normal volunteers, glioma patients and glioma patients who are enrolled in adoptive cellular gene therapy, when the infused cells express the PRG HSV1-tk. Stanford University's M-IRB has approved [^18F]FHBG PET imaging in glioma patients. COHNMC's M-IRB has approved referral of the patient's enrolled in the CTL therapy study for [^18F]FHBG PET imaging at UCLA.
254.62 MBq (6.88 mCi) [^18F]FHBG was injected through the other iv line (FDA limit 7 mCi). At approximately two-hours and fifteen minutes after [^18F]FHBG injection, the whole-body PET emission scan started from the patient's head to bottom, using an ECAT EXACT HR+PET scanner (CTI/Siemens, Inc., Knoxville, Tenn.). The whole-body scan consisted of 7 bed positions (7-minutes each). Three minute transmission scans followed each 7 minute emission scans. A two bed position head scan immediately followed completion of the whole-body scan. […] In addition, enhanced [^18F]FHBG accumulation was observed near the patient's corpus callosum. This indicates trafficking of infused CTLs to the remote corpus callosum tumor. The level of [^18F]FHBG accumulation is greater than what has been observed in control GBM patients who had tumor resections or intact tumors. Table 1 (FIG. 6) includes quantitative data of tumor to background ratios, comparing [^18F]FHBG accumulation levels of the CTL infused patient described in this example and control patients. Relative to similar controls, [^18F]FHBG accumulation is 2.6× higher in the patient's tumor resection site and 2.8× higher in the remote corpus callosum tumor site. […] Finally, a stereotactic biopsy of the left sided corpus callosum within a week of the [^18F]FHBG PET scan confirmed the presence of malignant disease infiltrated with CD8+ T cells.

[2] = in vivo, iv
From the text: Two coronal slices are shown to illustrate activity within the liver, gall-bladder, intestines, kidneys and bladder, which are organs involved with [^18F]FHBG's clearance from the body.

HSV1-TK = assay: Cell culture uptake assay of [3H]Penciclovir into patient CTLs versus control Jurkat cells; assay type: cell-based, Herpes Simplex Virus 1; conditions: about 1 μCi/ml, control Jurkat cells not expressing HSV1-tk
Method: FIG. 5 is a bar graph that illustrates the uptake of [^3H]Penciclovir into the genetically engineered CTL clone that was infused into the patient and control Jurkat cells. The autologous patient CTLs were genetically engineered to constitutively express HSV1-tk. The control cells expressed Firefly luciferase instead of HSV1-tk. […] The symbol “*” indicates significant difference between uptake of [^3H]PCV into patient CTLs vs control cells at 4 hours (P<0.001).
The patient of the present example received a total of approximately 1×10^9 CTLs within a five-week period of direct infusions (one week break between weeks 2 and 4). It is both possible that these cells proliferate or some die once injected into the patient. The number of cells present within the tumor resection site and the intact tumor near the corpus callosum could not be specifically quantified. That would require a pharmacokinetic model ((2004) J Nucl Med 45, 1560-1570, which is incorporated herein by reference) for [^18F]FHBG at brain tumor sites and knowing HSV1-tk expression levels per CTL at imaging time. […] This low level of activity explains why [^18F]FHBG accumulation in CTL infusion sites and intact tumor is only 2-3× higher than background. In fact during uptake assay cultured cells were exposed to a relatively constant concentration of about 1 μCi/ml; whereas assuming homogeneous distribution of [^18F]FHBG in 6 liters of blood, the maximum concentration CTLs would have been exposed to within the first 1-2 minutes after injection would have been about 1 μCi/ml, but then there is a rapid decline in blood concentration of [^18F]FHBG within the first 20-40 minutes following it's injection. Despite that, [^18F]FHBG's ability to detect the CTLs may be due to the low background within the surrounding brain tissue and the presence of a large number of CTLs.

## Nc1nc(O)c2ncn(COC(CO)CO)c2n1 [Ganciclovir]
HSV1-tk expressing CTLs
  Ganciclovir induced cell death of CTLs: susceptibility to Ganciclovir induced cell death

## Nc1nc2c(ncn2CCC(CO)C[18F])c(=O)[nH]1 (stereo not drawn) [[^18F]FHBG, 9-[4-[^18F]fluoro-3-(hydroxymethyl)butyl]guanine]
[1]; CTL infused patient, non-resected tumor near corpus callosum, images approximately two hours after injection
  tumor 2/meninges [18F]FHBG activity ratio: 1.57
[1]; CTL infused patient, surgically resected tumor site, images approximately two hours after injection
  tumor 1/meninges [18F]FHBG activity ratio: 1.75
[1]; CTL infusion sites and intact tumor
  [18F]FHBG accumulation versus background: 2-3 ×
[1]; control patients (no CTLs)
  average intact tumor site to meninges [18F]FHBG activity ratio: 0.44
  average resected tumor site/meninges [18F]FHBG activity ratio: 0.86
[1]; patient's tumor resection site
  [18F]FHBG accumulation relative to similar controls: 2.6 ×
[1]; remote corpus callosum tumor site
  [18F]FHBG accumulation relative to similar controls: 2.8 ×
[1]; resection site and intact tumor, quantitative analysis
  [18F]FHBG accumulation in the CTL infused patient versus control patients: greater than two times higher
[2]; human
  clearance from tissues not involved in its clearance: clears very rapidly
[2]
  time of rapid decline in blood concentration following injection: 20 to 40 min

## [^3H]Penciclovir
HSV1-TK; 1 h
  [3H]PCV uptake into CTL clone relative to control cells: 2.7 ×
HSV1-TK; 1 h, listed as [^3H]PCV
  [3H]PCV uptake into CTL clone relative to control cells: approximately 3 ×
HSV1-TK; 4 h
  [3H]PCV uptake into CTL clone relative to control cells: 9.3 ×
HSV1-TK; 4 h, listed as [^3H]PCV
  [3H]PCV uptake into CTL clone relative to control cells: ~9 ×
